Reference: PubChem BioAssay (NCI)
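These data come from cells grown in 96-well plates and exposed to compound for 48 hours at five concentrations. The concentration for full growth arrest is given as TGI.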

What was measured:
Test in all cases: growth of human tumour cells (NCI), 48 h
[1] = system: 786-0 renal
[2] = system: A498 renal
[3] = system: A549 NSCLC
[4] = system: ACHN renal
[5] = system: BT-549 breast
[6] = system: CAKI-1 renal
[7] = system: CCRF-CEM leukemia
[8] = system: COLO 205 colon
[9] = system: EKVX NSCLC
[10] = system: HCC-2998 colon
[11] = system: HCT-116 colon
[12] = system: HCT-15 colon
[13] = system: HL-60(TB) leukemia
[14] = system: HOP-62 NSCLC
[15] = system: HS 578T breast
[16] = system: HT29 colon
[17] = system: IGROV1 ovarian
[18] = system: K-562 leukemia
[19] = system: KM12 colon
[20] = system: LOX IMVI melanoma
[21] = system: M14 melanoma
[22] = system: MALME-3M melanoma
[23] = system: MCF7 breast
[24] = system: MDA-MB-231 breast
[25] = system: MDA-MB-435
[26] = system: MOLT-4 leukemia
[27] = system: NCI-H226 lung
[28] = system: NCI-H23 lung
[29] = system: NCI-H460 lung
[30] = system: NCI-H522 lung
[31] = system: OVCAR-3 ovarian
[32] = system: OVCAR-4 ovarian
[33] = system: OVCAR-5 ovarian
[34] = system: OVCAR-8 ovarian
[35] = system: PC-3 prostate
[36] = system: RPMI-8226 leukemia
[37] = system: SF-268 CNS
[38] = system: SF-295 CNS
[39] = system: SF-539 CNS
[40] = system: SK-MEL-2 melanoma
[41] = system: SK-MEL-28 melanoma
[42] = system: SK-MEL-5 melanoma
[43] = system: SK-OV-3 ovarian
[44] = system: SNB-19 CNS
[45] = system: SNB-75 CNS
[46] = system: SR leukemia
[47] = system: SW-620 colon
[48] = system: TK-10 renal
[49] = system: U251 CNS
[50] = system: UACC-257 melanoma

`COc1cc(O)c2c(c1)C(=O)c1cc3c(c(O)c1C2=O)C(OC1OC(C)C(OC)C(O)C1OC)C(OC)C(C)(O)C3=O` (stereo not given) was tested, and the TGI [1] was 45.5 µM, the TGI [2] was 21.7 µM and the TGI [3] was 16.1 µM. The TGI [4] was 12.8 µM, the TGI [5] was 31.6 µM and the TGI [6] was 11 µM. For the same compound, the TGI [7] was 41.6 µM, the TGI [8] was 13.3 µM and the TGI [9] was 14.5 µM. The TGI [10] was 17.4 µM, the TGI [11] was 14.6 µM and the TGI [12] was 15.8 µM. The TGI [13] was greater than 100 µM, the TGI [14] was 44.2 µM and the TGI [15] was 33.3 µM. The TGI [16] was 11.8 µM, the TGI [17] was 6.5 µM and the TGI [18] was 19.4 µM. For the same compound, the TGI [19] was 15.9 µM, the TGI [20] was 12.4 µM and the TGI [21] was 9.61 µM. For the same compound, the TGI [22] was 5.85 µM, the TGI [23] was 17.1 µM and the TGI [24] was 27.3 µM. The TGI [25] was 16.1 µM, the TGI [26] was 12.2 µM and the TGI [27] was 9.54 µM. The TGI [28] was 23.2 µM, the TGI [29] was 10.8 µM and the TGI [30] was 3.62 µM. For the same compound, the TGI [31] was 22.6 µM, the TGI [32] was 15.5 µM and the TGI [33] was 33.6 µM. It also gave a TGI [34] of 10.8 µM, a TGI [35] of 14.1 µM and a TGI [36] of 4.6 µM. The TGI [37] was 36.3 µM, the TGI [38] was 18.3 µM and the TGI [39] was 17.8 µM. The TGI [40] was 23.5 µM, the TGI [41] was 22.1 µM and the TGI [42] was 3.86 µM. It also gave a TGI [43] of 97 µM, a TGI [44] of 23.3 µM and a TGI [45] of 16 µM. It also gave a TGI [46] of 9.16 µM, a TGI [47] of 18.1 µM and a TGI [48] of 23.7 µM. It also gave a TGI [49] of 22.8 µM and a TGI [50] of 16.2 µM.
